# Patent US4691024A, “New mitomycin derivatives, preparation thereof and pharmaceutical compositions containing them” (priority 1984, dated 1987)
# Experiments:
# [1] = tested on: Streptococcus faecalis ATCC 10541; assay: Antibacterial activity, minimum growth inhibitory concentration by agar dilution method (SF); format: cell-based; details: Enterococcus faecalis, ATCC10541, pH 7, read-out: MIC, Streptococcus faecalis (SF)
# Method: (§1) The various compounds of formula (I) of Examples 1-26 were tested for antibacterial activity against 6 microorganisms. […]. In this table, the following symbols are used:
# SF: Streptococcus faecalis ATCC 10541
# [2] = tested on: Staphylococcus aureus ATCC 6538P; assay: Antibacterial activity, minimum growth inhibitory concentration by agar dilution method (SA); format: cell-based; details: ATCC6538P, pH 7, read-out: MIC, Staphylococcus aureus (SA)
# Method: as §1
# SA: Staphylococcus aureus ATCC 6538P
# Bacillus subtilis 10707 = assay: Antibacterial activity, minimum growth inhibitory concentration by agar dilution method (BS); format: cell-based; details: Bacillus subtilis, 10707, pH 7, read-out: MIC, Bacillus subtilis (BS)
# Method: as §1
# BS: Bacillus subtilis 10707
# [3] = tested on: Proteus vulgaris ATCC 6897; assay: Antibacterial activity, minimum growth inhibitory concentration by agar dilution method (PV); format: cell-based; details: ATCC6897, pH 7, read-out: MIC, Proteus vulgaris (PV)
# Method: as §1
# PV: Proteus vulgaris ATCC 6897
# [4] = tested on: Shigella sonnei ATCC 9290; assay: Antibacterial activity, minimum growth inhibitory concentration by agar dilution method (SS); format: cell-based; details: ATCC9290, pH 7, read-out: MIC, Shigella sonnei (SS)
# Method: as §1
# SS: Shigella sonnei ATCC 9290
# [5] = tested on: Klebsiella pneumoniae ATCC 10031; assay: microbe, parasite or virus in culture; format: cell-based; details: ATCC10031, pH 7, read-out: MIC, Klebsiella pneumoniae (KP)
# Description: In this table, the following symbols are used:
# KP: Klebsiella pneumoniae ATCC 10031
# [6] = Acute toxicity in mice (LD50, Behrens Kerber's method); details: mouse, in vivo, ip; ddy mice, single intraperitoneal administration, 14 days observation
# Method: (§2) The antitumour-activity and toxicity of various compounds of formula (I) were investigated as indicated below.
# Each animal of the test group consisting of 5 ddy mice was administered intraperitoneally once with a test compound. […] The LD50 was determined by Behrens Kerber's method.
# Sarcoma 180 solid tumour = assay: Anti-tumour activity against Sarcoma 180 solid tumour in mice; format: in vivo; details: Mus musculus, sc, 168 h; Sarcoma 180 s.c. in ddy mice; into tail vein 24 hours after implantation; volume at 7 days; read-out: ED50 (dose reducing tumour volume to 50% of control)
# Method: as §2
# (1) Effect against Sarcoma 180 solid tumour cells
# 5×10^6 cells of Sarcoma 180 solid tumour were intraperitoneally implanted into ddy mice. 7 days later, ascites cells were sampled. The cells were washed once with a sterilized physiological solution of sodium chloride and were used to prepare a cell suspension containing 5×10^7 cells per ml. On each occasion, 0.1 ml of the cell suspension was subcutaneously implanted into the right arm pit of a male mouse (ddy strain; body weight 20±2 g). The test compound was dissolved in a physiological solution of sodium chloride with or without addition of Tween 80 and was administered into the tail vein of each mouse of a group consisting of 5 mice at a dose of 0.1-0.2 ml, 24 hours after the implantation of the tumour cells.
# The anti-tumour activity was determined in the following manner. 7 days after the implantation, the major axis (a) and the minor axis (b) of the tumour were measured to calculate a value of "a×b^2 /2" which corresponds to the volume of the tumour. The anti-tumour activity was expressed by the ratio of the volume of the tumours (T) of the group of animals administered with the test compound to the corresponding volume of tumours (c) of the untreated animals.
# (2) Determination of ED50
# (The amount needed for reducing the volume of Sarcoma 180 solid tumours in mice to 50% on the basis of the corresponding volume of Sarcoma solid tumours in control untreated animals). On graph paper, T/C (the ratio of the volume of tumours of treated and control animals) was indicated by an arithmetic scale on the longitudinal axis and the administered amount of the test compound was indicated by a logarithmic scale on the lateral axis.
# The relationship between the dose and T/C was shown by a straight line determined by the method of least squares, from which a dose corresponding to T/C of 0.5 was obtained.
# peripheral leucocytes = assay: Effect on the peripheral leucocytes number in Sarcoma 180 bearing mice; format: in vivo; details: Sarcoma 180 bearing ddy mice; intraperitoneal 24 hours after implantation; blood 4 days later
# Method: as §2
# (4) Effect on the peripheral leucocytes number
# Sarcoma 180 solid tumour cells (5×10^6) were subcutaneously implanted into the right arm pit of each mouse (body weight 20±2 g) of a group consisting of 5 male mice (ddy strain). 24 hours after implantation, a test compound was intraperitoneally administered to each animal. 4 days later, blood (each 0.02 ml) was collected from the suborbital plexus vein of each tumour-carrying animal. The collected sample of the blood was dispersed in 9.98 ml of Cell-Kit Seven solution. One drop of saponin solution was added to the sample to dissolve erythrocytes, and then a microcell counter was used to measure the number of leucocytes. On a graph paper, the number of leucocytes was indicated on the y-axis by an arithmetic scale and the dose of the test compound was indicated on the x-axis by a logarithmic scale. The relationship between the number of peripheral leucocytes and the dosage of the test compound was plotted and the dosage corresponding to 4000 peripheral leucocytes/mm^3 (about 1/2 the number of leucocytes of normal mice) was obtained. This value is denoted in Table 5 by WBC4000.
# [7] = Solubility in 0.03M phosphate buffered solution; format: physicochemical; details: 0.03m phosphate buffer, aqueous buffer, pH 7.0, 23° C.
# Method: The solubilities of Compound 5, Compound 14 and Compound 20 in 0.03M phosphate buffered solution (pH 7.0, 23° C.) were determined.
# [8] = Stability of the product as observed on isolation; format: physicochemical; details: in words; yield not constant
# Method: To this solution is added dropwise 1 ml of methanol containing 23 mg of L-cysteine methyl ester hydrochloride and 50 μl of triethylamine. About 2 minutes later, the solvent is removed from the mixture by distillation under reduced pressure. Then, a similar treatment to that described in Example 1 is effected to obtain a small amount of Compound 16 as a grayish green powder. The yield of the resultant compound is not constant because of its unstability.
# The yield is not constant because of unstability of the product.
Compound,MIC [1],MIC [2],MIC (Bacillus subtilis 10707),MIC [3],MIC [4],MIC [5],LD50 at 336 h [6],ED50 (Sarcoma 180 solid tumour),WBC4000 (dosage corresponding to 4000 peripheral leucocytes/mm^3) (peripheral leucocytes),solubility [7],stability of the resultant compound [8]
"CO[C@@]12[C@H](COC(N)=O)C3=C(C(=O)C(C)=C(NCCSSC[C@H](N)C(=O)O)C3=O)N1C[C@@H]1N[C@@H]12 [Compound 14, 7-N-[2-[(L-Cystein-S-yl)thio]ethyl]mitomycin C]",0.31 µg/mL,0.31 µg/mL,0.16 µg/mL,5 µg/mL,> 20 µg/mL,0.63 µg/mL,30 mg/kg,15.4 mg/kg,26.9 mg/kg,> 100 mg/mL,–
CCOC(=O)[C@@H](N)CSSCCNC1=C(C)C(=O)C2=C(C1=O)[C@@H](COC(N)=O)[C@@]1(OC)[C@H]3N[C@H]3CN21 [Compound 17],0.2 µg/mL,0.2 µg/mL,< 0.02 µg/mL,1.6 µg/mL,25 µg/mL,0.2 µg/mL,–,–,–,–,unstability
"CO[C@@]12[C@H](COC(N)=O)C3=C(C(=O)C(C)=C(NCCSSc4ccc(N)cc4)C3=O)N1C[C@@H]1N[C@@H]12 [Compound 4, 7-N-[2-(4-aminophenyldithio)ethyl]mitomycin C]",0.04 µg/mL,0.08 µg/mL,0.02 µg/mL,5 µg/mL,> 20 µg/mL,1.3 µg/mL,9 mg/kg,5.1 mg/kg,> 10 mg/kg,–,–
"CO[C@@]12[C@H](COC(N)=O)C3=C(C(=O)C(C)=C(NCCSSc4cccc(N)c4)C3=O)N1C[C@@H]1N[C@@H]12 [Compound 3, 7-N-[2-(3-aminophenyldithio)ethyl]mitomycin C]",0.04 µg/mL,0.08 µg/mL,< 0.01 µg/mL,5 µg/mL,20 µg/mL,0.63 µg/mL,7.5 mg/kg,5 mg/kg,> 10 mg/kg,–,–
"COC(=O)[C@@H](N)CSSCCNC1=C(C)C(=O)C2=C(C1=O)[C@@H](COC(N)=O)[C@@]1(OC)[C@H]3N[C@H]3CN21 [Compound 16, 7-N-[2-[(L-1-Methoxycarbonylcysteamin-S-yl)thio]ethyl]mitomycin C]",0.39 µg/mL,0.2 µg/mL,< 0.02 µg/mL,1.6 µg/mL,50 µg/mL,0.2 µg/mL,–,–,–,–,unstability
"COc1ccc(SSCCNC2=C(C)C(=O)C3=C(C2=O)[C@@H](COC(N)=O)[C@@]2(OC)[C@H]4N[C@H]4CN32)cc1 [Compound 9, 7-N-[2-(4-Methoxyphenyldithio)ethyl]mitomycin C]",< 0.02 µg/mL,< 0.02 µg/mL,< 0.02 µg/mL,1.3 µg/mL,40 µg/mL,0.63 µg/mL,5.3 mg/kg,7.4 mg/kg,> 10 mg/kg,–,–
"CO[C@@]12[C@H](COC(N)=O)C3=C(C(=O)C(C)=C(NCCSSC[C@H](N)C(=O)NCC(=O)O)C3=O)N1C[C@@H]1N[C@@H]12 [Compound 20, 7-N-[2-[(Glycino-L-cystein-S-71)thio]ethyl]mitomycin C]",0.63 µg/mL,0.31 µg/mL,0.08 µg/mL,5 µg/mL,–,0.63 µg/mL,27 mg/kg,9.6 mg/kg,20.5 mg/kg,> 100 mg/mL,–
"CO[C@@]12[C@H](COC(N)=O)C3=C(C(=O)C(C)=C(NCCSSc4ccc(NC(C)=O)cc4)C3=O)N1C[C@@H]1N[C@@H]12 [Compound 5, 7-N-[2-(4-Acetamidophenyldithio)ethyl]mitomycin C]",0.04 µg/mL,0.02 µg/mL,0.005 µg/mL,5 µg/mL,> 40 µg/mL,0.16 µg/mL,30 mg/kg,8.5 mg/kg,14.2 mg/kg,0.052 mg/mL,–
